Data as given in the NIST ThermoML archive (doi:10.1016/j.jct.2010.05.002).
Numbers after ± are expanded uncertainties.

Test: molar heat capacity at constant pressure
Details: 101.33 kPa, Vacuum adiabatic calorimetry

CC(C)(C)c1ccc(-c2ccccc2)cc1 [4-(1,1-dimethylethyl)-1,1'-biphenyl]
Details | molar heat capacity at constant pressure [J/K/mol]
156.5 K, Crystal | 164.59 ± 1.1
157.48 K, Crystal | 165.54 ± 1.1
158.46 K, Crystal | 168.2 ± 1.1
159.4 K, Crystal | 167.88 ± 1.1
160.49 K, Crystal | 170.03 ± 1.1
162.35 K, Crystal | 170.22 ± 1.1
163.32 K, Crystal | 171.45 ± 1.1
164.3 K, Crystal | 171.68 ± 1.1
165.27 K, Crystal | 172.24 ± 1.1
166.24 K, Crystal | 173.77 ± 1.1
167.21 K, Crystal | 175.03 ± 1.1
168.17 K, Crystal | 175.74 ± 1.1
169.13 K, Crystal | 176.91 ± 1.1
170.1 K, Crystal | 177.85 ± 1.1
171.06 K, Crystal | 178.74 ± 1.1
172.03 K, Crystal | 179.57 ± 1.1
172.99 K, Crystal | 180.33 ± 1.1
173.96 K, Crystal | 181.16 ± 1.1
174.88 K, Crystal | 181.91 ± 1.1
175.84 K, Crystal | 182.48 ± 1.1
176.8 K, Crystal | 183.39 ± 1.1
177.75 K, Crystal | 184.41 ± 1.2
178.71 K, Crystal | 186.15 ± 1.2
179.67 K, Crystal | 186.69 ± 1.2
180.62 K, Crystal | 187.72 ± 1.2
181.58 K, Crystal | 187.66 ± 1.2
182.53 K, Crystal | 188.58 ± 1.2
183.48 K, Crystal | 190.07 ± 1.2
184.43 K, Crystal | 190.57 ± 1.2
185.38 K, Crystal | 191.97 ± 1.2
186.33 K, Crystal | 192.5 ± 1.2
187.27 K, Crystal | 193.52 ± 1.2
188.22 K, Crystal | 194.65 ± 1.2
189.16 K, Crystal | 195.58 ± 1.2
190.05 K, Crystal | 196.73 ± 1.2
190.99 K, Crystal | 197.88 ± 1.2
191.93 K, Crystal | 198.13 ± 1.2
192.87 K, Crystal | 199.81 ± 1.2
193.81 K, Crystal | 200.3 ± 1.2
194.75 K, Crystal | 200.51 ± 1.2
195.68 K, Crystal | 201.32 ± 1.3
196.61 K, Crystal | 203.32 ± 1.3
197.55 K, Crystal | 203.52 ± 1.3
198.48 K, Crystal | 205.18 ± 1.3
199.41 K, Crystal | 205.85 ± 1.3
200.34 K, Crystal | 205.72 ± 1.3
201.52 K, Crystal | 207.22 ± 1.3
202.94 K, Crystal | 208.68 ± 1.3
204.37 K, Crystal | 210.19 ± 1.3
205.79 K, Crystal | 211.33 ± 1.3
207.14 K, Crystal | 212.7 ± 1.3
208.55 K, Crystal | 214.44 ± 1.3
209.96 K, Crystal | 215.21 ± 1.3
211.37 K, Crystal | 217.19 ± 1.4
212.78 K, Crystal | 218.22 ± 1.4
214.19 K, Crystal | 219.53 ± 1.4
215.59 K, Crystal | 220.68 ± 1.4
216.99 K, Crystal | 222.17 ± 1.4
218.39 K, Crystal | 224.18 ± 1.4
219.79 K, Crystal | 225.72 ± 1.4
221.18 K, Crystal | 226.72 ± 1.4
222.9 K, Crystal | 227.94 ± 1.4
224.62 K, Crystal | 229.7 ± 1.4
226 K, Crystal | 231.67 ± 1.4
227.39 K, Crystal | 232.23 ± 1.4
228.77 K, Crystal | 233.85 ± 1.4
230.14 K, Crystal | 234.83 ± 1.4
231.52 K, Crystal | 236.49 ± 1.5
232.88 K, Crystal | 237.84 ± 1.5
234.25 K, Crystal | 239.02 ± 1.5
235.61 K, Crystal | 240.58 ± 1.5
236.97 K, Crystal | 241.66 ± 1.5
238.33 K, Crystal | 243.18 ± 1.5
239.69 K, Crystal | 244.52 ± 1.5
241.05 K, Crystal | 245.68 ± 1.5
242.4 K, Crystal | 247.57 ± 1.5
243.75 K, Crystal | 248.49 ± 1.5
244.98 K, Crystal | 249.71 ± 1.6
246.33 K, Crystal | 251.82 ± 1.6
247.66 K, Crystal | 253.81 ± 1.6
249 K, Crystal | 254.6 ± 1.6
250.34 K, Crystal | 256.26 ± 1.6
251.68 K, Crystal | 256.95 ± 1.6
253.01 K, Crystal | 258.51 ± 1.6
254.34 K, Crystal | 259.55 ± 1.6
255.66 K, Crystal | 261.49 ± 1.6
256.97 K, Crystal | 262.33 ± 1.6
258.29 K, Crystal | 263.11 ± 1.6
259.61 K, Crystal | 265.21 ± 1.6
260.92 K, Crystal | 267.1 ± 1.6
262.23 K, Crystal | 268.4 ± 1.7
263.54 K, Crystal | 269.72 ± 1.7
264.84 K, Crystal | 270.96 ± 1.7
265.99 K, Crystal | 271.74 ± 1.7
267.28 K, Crystal | 273.32 ± 1.7
268.57 K, Crystal | 275.22 ± 1.7
269.86 K, Crystal | 276.29 ± 1.7
271.15 K, Crystal | 277.98 ± 1.7
272.43 K, Crystal | 280.14 ± 1.7
273.71 K, Crystal | 281.15 ± 1.7
274.98 K, Crystal | 281.51 ± 1.7
276.26 K, Crystal | 282.58 ± 1.7
277.52 K, Crystal | 284.25 ± 1.8
278.79 K, Crystal | 285.49 ± 1.8
280.04 K, Crystal | 286.95 ± 1.8
281.3 K, Crystal | 288.13 ± 1.8
282.55 K, Crystal | 289.87 ± 1.8
283.8 K, Crystal | 290.87 ± 1.8
285.04 K, Crystal | 291.7 ± 1.8
286.08 K, Crystal | 293.13 ± 1.8
287.32 K, Crystal | 295.16 ± 1.8
288.53 K, Crystal | 295.47 ± 1.8
289.76 K, Crystal | 296.85 ± 1.8
292.2 K, Crystal | 299.34 ± 1.8
293.41 K, Crystal | 300.48 ± 1.9
294.63 K, Crystal | 301.51 ± 1.9
295.83 K, Crystal | 302.32 ± 1.9
297.03 K, Crystal | 303.76 ± 1.9
298.23 K, Crystal | 303.58 ± 1.9
299.42 K, Crystal | 305.47 ± 2
300.61 K, Crystal | 306.04 ± 1.9
301.79 K, Crystal | 308.28 ± 1.9
302.89 K, Crystal | 309.67 ± 1.9
303.99 K, Crystal | 310.47 ± 1.9
305.04 K, Crystal | 312.55 ± 1.9
306.34 K, Crystal | 313.92 ± 1.9
307.46 K, Crystal | 315.51 ± 1.9
308.62 K, Crystal | 315.74 ± 2
309.76 K, Crystal | 319.18 ± 2
310.9 K, Crystal | 320.42 ± 2
312.03 K, Crystal | 320.51 ± 2
313.15 K, Crystal | 321.63 ± 2
314.25 K, Crystal | 323.46 ± 2
315.35 K, Crystal | 326.54 ± 2
316.44 K, Crystal | 326.58 ± 2
317.52 K, Crystal | 328.97 ± 2.1
318.58 K, Crystal | 333.26 ± 2.2
325.87 K, Liquid | 381 ± 2.3
327.07 K, Liquid | 382.02 ± 2.3
328.07 K, Liquid | 382.22 ± 2.3
329.06 K, Liquid | 382.84 ± 2.3
330.05 K, Liquid | 383.2 ± 2.3
331.03 K, Liquid | 383.56 ± 2.3
332.01 K, Liquid | 384.21 ± 2.4
332.98 K, Liquid | 384.73 ± 2.4
333.94 K, Liquid | 386.4 ± 2.4
334.9 K, Liquid | 386.26 ± 2.4
335.85 K, Liquid | 387.48 ± 2.4
336.8 K, Liquid | 388 ± 2.4
337.74 K, Liquid | 388.46 ± 2.4
338.68 K, Liquid | 388.8 ± 2.4
339.61 K, Liquid | 389.81 ± 2.4
340.53 K, Liquid | 390.68 ± 2.4
340.99 K, Liquid | 390.97 ± 2.4
341.91 K, Liquid | 391.9 ± 2.4
342.82 K, Liquid | 392.95 ± 2.4
343.73 K, Liquid | 393.35 ± 2.4
344.62 K, Liquid | 393.96 ± 2.4
345.52 K, Liquid | 394.82 ± 2.4
346.4 K, Liquid | 396.04 ± 2.4
347.28 K, Liquid | 396.15 ± 2.4
348.16 K, Liquid | 397.03 ± 2.4
349.03 K, Liquid | 396.87 ± 2.4
349.89 K, Liquid | 397.86 ± 2.4
350.75 K, Liquid | 398.4 ± 2.4
351.6 K, Liquid | 397.8 ± 2.4
352.45 K, Liquid | 397.92 ± 2.6
354.12 K, Liquid | 401.27 ± 3.3
354.41 K, Liquid | 401.25 ± 2.5
355.24 K, Liquid | 400.85 ± 2.4
356.06 K, Liquid | 400.95 ± 2.4
356.87 K, Liquid | 401.61 ± 2.5
357.67 K, Liquid | 402.4 ± 2.5
358.47 K, Liquid | 402.62 ± 2.5
359.27 K, Liquid | 402.51 ± 2.5
360.06 K, Liquid | 402.5 ± 2.5
360.84 K, Liquid | 404.15 ± 2.5
361.61 K, Liquid | 405.1 ± 2.5
362.38 K, Liquid | 405.27 ± 2.5
363.15 K, Liquid | 406.09 ± 2.5
363.91 K, Liquid | 406.9 ± 2.5
364.66 K, Liquid | 406.47 ± 2.5
365.41 K, Liquid | 407.47 ± 2.5
366.15 K, Liquid | 407.61 ± 2.5
366.27 K, Liquid | 407.63 ± 2.5
367.01 K, Liquid | 406.87 ± 2.5
367.73 K, Liquid | 408.31 ± 2.5
368.45 K, Liquid | 410.51 ± 2.5
369.17 K, Liquid | 410.57 ± 2.5
369.88 K, Liquid | 409.74 ± 2.5
370.58 K, Liquid | 410.84 ± 2.5
